# Measurements published in US7179887B2, “Guinea pig proteinase-activated receptor 4 and its activating peptide” (Ortho-McNeil Pharmaceutical, Inc., priority 2001, dated 2007).
# Residues, ends and D or L forms follow the SMILES beside them. No end group written: not given here.
# Legend:
# [1] = test system: human gel filtered platelets; conditions: for induction of human platelet aggregation / activation of human PAR-4 (in words): human platelets
# Experimental: (§1) Human platelet-rich plasma (PRP) concentrate (Biological Specialties, Inc., Colmar, Pa.) was gel-filtered (Sepharose 2B, Pharmacia, Inc.) in Tyrode's buffer (140 mM NaCl, 2.7 mM KCl, 12 mM NaHCO3, 0.76 mM Na2HPO4, 5.5 mM dextrose, 5.0 mM Hepes, and 2 mg/ml BSA, pH 7.4). Guinea pigs (400–800 g) were anesthetized and blood drawn via an intraarterial catheter. PRP was prepared by centrifugation at 200×g for 10 min. Guinea pig PRP was gel-filtered as above. Gel-filtered platelets were diluted with Tyrode's buffer (143,000 platelets/μl, per well) and 2 mM CaCl2 in a 96-well microtiter plate. Platelet aggregation was initiated by the addition of the guinea pig PAR-4 AP (SFPGQA-NH2, SEQ ID No.:7) peptide. The assay plate was gently mixed constantly. Aggregation was monitored at 0 and 5 min after agonist addition in a microplate reader (Molecular Devices) by optical density at 650 nm (ΔSOFT). Aggregation was calculated as the decrease in optical density between the two measurements. All samples were tested in duplicate wells on the same plate.
# [2] = test system: guinea pig gel filtered platelets
# Experimental: as §1
# [3] = test system: guinea pig gel filtered platelets; conditions: Nishikawa et al. (2000); cited from earlier work
# [4] = test system: human gel filtered platelets; conditions: background statement; cited from earlier work
compound,measurement,setting,value
"C[C@H](NC(=O)[C@H](CCC(N)=O)NC(=O)CNC(=O)[C@@H]1CCCN1C(=O)[C@H](Cc1ccccc1)NC(=O)[C@@H](N)CO)C(N)=O [guinea pig PAR-4 AP, SFPGQA-NH2] (H-SFPGQA-NH2; N-terminus assumed)",EC50,[1],140 ± 2.5 µM
same,induction of human platelet aggregation / activation of human PAR-4 (in words),[1],cross-activates human PAR-4
same,EC50,[2],174 ± 14.6 µM
GYPGKF-NH2 [murine PAR-4 AP],response of guinea pig platelets to activating peptide (literature),[3],do not respond
GYPGQV-NH2 [human PAR-4 AP],induction of human platelet aggregation / activation of human PAR-4 (in words),[1],induced human platelet aggregation
SFLLRN-NH2 [human PAR-1 AP],induction of human platelet aggregation / activation of human PAR-4 (in words),[1],induced human platelet aggregation
same,induction of guinea pig platelet aggregation / response of guinea pig PAR-4 (in words),[2]; isolated guinea pig platelets,induced guinea pig platelet aggregation
same,aggregation of human platelets by exogenous activating peptide (background),[4],aggregation of human platelets can be reproduced
